Earlier results, collected in patent US6919088B2 (priority 2002, dated 2005).

How the values were obtained:
[1] = test system: arachadonic acid in tissue lipids; conditions: rats, dietary triacylglycerols
[2] = test system: decorin and procollagen-I; conditions: in vitro testing compared to retinoic acid

In the case of CCCCCCCCCCC/C=C\CCCCC(=O)O [petroselinic acid, cis-6-octadecenoic acid], the “levels of arachadonic acid in tissue lipids” value [1] is given as “reduce the levels of arachadonic acid” and the “upregulating and increasing synthesis of decorin and procollagen-I” value [2] is given as “more effective than retinoic acid”.
